Source: ChEMBL document CHEMBL4118281, “Azoalkyl ether imidazo[2,1-b]benzothiazoles as potentially antimicrobial agents with novel structural skeleton” (2018)
Converted amounts (≈) assume the structure as drawn.

Columns and labels:
Aspergillus flavus = experiment: Antifungal activity against Aspergillus flavus after 24 hrs by two fold serial dilution based spectrophotometric analysis; format: functional
Staphylococcus aureus [1] = experiment: Antibacterial activity against Staphylococcus aureus ATCC 25923 after 24 hrs by micro broth dilution method; format: functional; conditions: ATCC 25923, 24 h
Shigella dysenteriae = experiment: Antibacterial activity against Shigella dysenteriae after 24 hrs by micro broth dilution method; format: functional
Saccharomyces cerevisiae = experiment: Antifungal activity against Beer yeast after 24 hrs by two fold serial dilution based spectrophotometric analysis; format: functional
Escherichia coli [2] = experiment: Antibacterial activity against Escherichia coli JM109 after 24 hrs by micro broth dilution method; format: functional; conditions: JM109, 24 h
Salmonella typhi = experiment: Antibacterial activity against Bacillus typhi after 24 hrs by micro broth dilution method; format: functional, Salmonella enterica subsp. enterica serovar Typhi; conditions: Salmonella enterica
Micrococcus luteus = experiment: Antibacterial activity against Micrococcus luteus ATCC 4698 after 24 hrs by micro broth dilution method; format: functional; conditions: NCTC 2665, 24 h
Staphylococcus aureus [3] = experiment: Antibacterial activity against methicillin-resistant Staphylococcus aureus N315 after 24 hrs by micro broth dilution method; format: functional; conditions: N315, 24 h
Bacillus = experiment: Antibacterial activity against Bacillus proteus ATCC 13315 after 24 hrs by micro broth dilution method; format: functional; conditions: ATCC 13315, 24 h
Pichia norvegensis = experiment: Antifungal activity against Candida mycoderma after 24 hrs by two fold serial dilution based spectrophotometric analysis; format: functional
Cyberlindnera jadinii = experiment: Antifungal activity against Candida utilis after 24 hrs by two fold serial dilution based spectrophotometric analysis; format: functional; conditions: Williopsis jadinii
Bacillus subtilis = experiment: Antibacterial activity against Bacillus subtilis after 24 hrs by micro broth dilution method; format: functional
Escherichia coli [4] = experiment: Antibacterial activity against Escherichia coli DH52 after 24 hrs by micro broth dilution method; format: functional; conditions: DH52, 24 h
Candida albicans = experiment: Antifungal activity against Candida albicans after 24 hrs by two fold serial dilution based spectrophotometric analysis; format: functional
Pseudomonas aeruginosa = experiment: Antibacterial activity against Pseudomonas aeruginosa after 24 hrs by micro broth dilution method; format: functional
Staphylococcus aureus [5] = experiment: Antibacterial activity against methicillin-resistant Staphylococcus aureus N315 after 1 passage; format: functional
Staphylococcus aureus [6] = experiment: Antibacterial activity against methicillin-resistant Staphylococcus aureus N315 after 5 passages; format: functional
Staphylococcus aureus [7] = experiment: Antibacterial activity against methicillin-resistant Staphylococcus aureus N315 after 7 passages; format: functional
Staphylococcus aureus [8] = experiment: Antibacterial activity against methicillin-resistant Staphylococcus aureus N315 after 6 passages; format: functional
Staphylococcus aureus [9] = experiment: Antibacterial activity against methicillin-resistant Staphylococcus aureus N315 after 2 passages; format: functional
Staphylococcus aureus [10] = experiment: Antibacterial activity against methicillin-resistant Staphylococcus aureus N315 after 8 passages; format: functional
Staphylococcus aureus [11] = experiment: Antibacterial activity against methicillin-resistant Staphylococcus aureus N315 after 3 passages; format: functional
Staphylococcus aureus [12] = experiment: Antibacterial activity against methicillin-resistant Staphylococcus aureus N315 after 4 passages; format: functional

SMILES | MIC (Aspergillus flavus) | MIC (Staphylococcus aureus [1]) | MIC (Shigella dysenteriae) | MIC (Saccharomyces cerevisiae) | MIC (Escherichia coli [2]) | MIC (Salmonella typhi) | MIC (Micrococcus luteus) | MIC (Staphylococcus aureus [3]) | MIC (Bacillus) | MIC (Pichia norvegensis) | MIC (Cyberlindnera jadinii) | MIC (Bacillus subtilis) | MIC (Escherichia coli [4]) | MIC (Candida albicans) | MIC (Pseudomonas aeruginosa) | also measured
CCOc1ccc2c(c1)sc1nc(-c3ccccc3)c(COCCCCCn3cnc([N+](=O)[O-])c3)n12 | 256 µg/mL (≈ 506 µM) | 128 µg/mL (≈ 253 µM) | 16 µg/mL (≈ 31.6 µM) | 128 µg/mL (≈ 253 µM) | > 512 µg/mL | 256 µg/mL (≈ 506 µM) | 512 µg/mL (≈ 1010 µM) | > 512 µg/mL | 512 µg/mL (≈ 1010 µM) | 256 µg/mL (≈ 506 µM) | 128 µg/mL (≈ 253 µM) | 256 µg/mL (≈ 506 µM) | 128 µg/mL (≈ 253 µM) | 128 µg/mL (≈ 253 µM) | 512 µg/mL (≈ 1010 µM) | –
O=[N+]([O-])c1cn(CCCOCc2c(-c3ccccc3)nc3sc4ccccc4n23)cn1 | 16 µg/mL (≈ 36.9 µM) | 4 µg/mL (≈ 9.23 µM) | 8 µg/mL (≈ 18.5 µM) | 64 µg/mL (≈ 148 µM) | 8 µg/mL (≈ 18.5 µM) | 32 µg/mL (≈ 73.8 µM) | 256 µg/mL (≈ 591 µM) | 8 µg/mL (≈ 18.5 µM) | 4 µg/mL (≈ 9.23 µM) | 32 µg/mL (≈ 73.8 µM) | 128 µg/mL (≈ 295 µM) | 2 µg/mL (≈ 4.61 µM) | 4 µg/mL (≈ 9.23 µM) | 2 µg/mL (≈ 4.61 µM) | 2 µg/mL (≈ 4.61 µM) | –
O=[N+]([O-])c1cn(CCCCCCCCCCOCc2c(-c3ccccc3)nc3sc4ccccc4n23)cn1 | 128 µg/mL (≈ 241 µM) | 32 µg/mL (≈ 60.2 µM) | 16 µg/mL (≈ 30.1 µM) | 8 µg/mL (≈ 15 µM) | 64 µg/mL (≈ 120 µM) | 64 µg/mL (≈ 120 µM) | 128 µg/mL (≈ 241 µM) | 16 µg/mL (≈ 30.1 µM) | 32 µg/mL (≈ 60.2 µM) | 64 µg/mL (≈ 120 µM) | 256 µg/mL (≈ 481 µM) | 64 µg/mL (≈ 120 µM) | 16 µg/mL (≈ 30.1 µM) | 64 µg/mL (≈ 120 µM) | 64 µg/mL (≈ 120 µM) | –
c1ccc(-c2nc3sc4ccccc4n3c2COCCCn2cncn2)cc1 | 16 µg/mL (≈ 41.1 µM) | 4 µg/mL (≈ 10.3 µM) | 16 µg/mL (≈ 41.1 µM) | 64 µg/mL (≈ 164 µM) | 16 µg/mL (≈ 41.1 µM) | 32 µg/mL (≈ 82.2 µM) | 64 µg/mL (≈ 164 µM) | 16 µg/mL (≈ 41.1 µM) | 16 µg/mL (≈ 41.1 µM) | 32 µg/mL (≈ 82.2 µM) | 64 µg/mL (≈ 164 µM) | 8 µg/mL (≈ 20.5 µM) | 16 µg/mL (≈ 41.1 µM) | 4 µg/mL (≈ 10.3 µM) | 4 µg/mL (≈ 10.3 µM) | –
CCOc1ccc2c(c1)sc1nc(-c3ccccc3)c(COCCCCCCCCCCn3c([N+](=O)[O-])cnc3C)n12 | 512 µg/mL (≈ 868 µM) | 128 µg/mL (≈ 217 µM) | 16 µg/mL (≈ 27.1 µM) | 64 µg/mL (≈ 109 µM) | 512 µg/mL (≈ 868 µM) | 256 µg/mL (≈ 434 µM) | 512 µg/mL (≈ 868 µM) | 128 µg/mL (≈ 217 µM) | 256 µg/mL (≈ 434 µM) | 256 µg/mL (≈ 434 µM) | 256 µg/mL (≈ 434 µM) | 32 µg/mL (≈ 54.3 µM) | 256 µg/mL (≈ 434 µM) | 128 µg/mL (≈ 217 µM) | 128 µg/mL (≈ 217 µM) | –
Cc1ncc([N+](=O)[O-])n1CCCCCCCCCCOCc1c(-c2ccccc2)nc2sc3ccccc3n12 | 16 µg/mL (≈ 29.3 µM) | 16 µg/mL (≈ 29.3 µM) | 32 µg/mL (≈ 58.6 µM) | 256 µg/mL (≈ 469 µM) | 8 µg/mL (≈ 14.7 µM) | 64 µg/mL (≈ 117 µM) | 256 µg/mL (≈ 469 µM) | 16 µg/mL (≈ 29.3 µM) | 16 µg/mL (≈ 29.3 µM) | 64 µg/mL (≈ 117 µM) | 128 µg/mL (≈ 235 µM) | 16 µg/mL (≈ 29.3 µM) | 16 µg/mL (≈ 29.3 µM) | 8 µg/mL (≈ 14.7 µM) | 16 µg/mL (≈ 29.3 µM) | –
O=C(N[C@H](CO)[C@H](O)c1ccc([N+](=O)[O-])cc1)C(Cl)Cl [CHLORAMPHENICOL] | – | 16 µg/mL (≈ 49.5 µM) | 16 µg/mL (≈ 49.5 µM) | – | 32 µg/mL (≈ 99 µM) | 32 µg/mL (≈ 99 µM) | 8 µg/mL (≈ 24.8 µM) | 16 µg/mL (≈ 49.5 µM) | 32 µg/mL (≈ 99 µM) | – | – | 32 µg/mL (≈ 99 µM) | 32 µg/mL (≈ 99 µM) | – | 32 µg/mL (≈ 99 µM) | MIC (Staphylococcus aureus [5]): 14 µM (≈ 4.52 µg/mL); MIC (Staphylococcus aureus [6]): 33 µM (≈ 10.7 µg/mL); MIC (Staphylococcus aureus [7]): 67 µM (≈ 21.6 µg/mL); MIC (Staphylococcus aureus [8]): 33 µM (≈ 10.7 µg/mL); MIC (Staphylococcus aureus [9]): 14 µM (≈ 4.52 µg/mL); MIC (Staphylococcus aureus [10]): 67 µM (≈ 21.6 µg/mL); MIC (Staphylococcus aureus [11]): 14 µM (≈ 4.52 µg/mL); MIC (Staphylococcus aureus [12]): 33 µM (≈ 10.7 µg/mL)
CCOc1ccc2c(c1)sc1nc(-c3ccccc3)c(COCCCCCCCCCCn3cncn3)n12 | > 512 µg/mL | 8 µg/mL (≈ 15 µM) | 64 µg/mL (≈ 120 µM) | 128 µg/mL (≈ 241 µM) | 64 µg/mL (≈ 120 µM) | 128 µg/mL (≈ 241 µM) | 64 µg/mL (≈ 120 µM) | 64 µg/mL (≈ 120 µM) | 64 µg/mL (≈ 120 µM) | > 512 µg/mL | > 512 µg/mL | 32 µg/mL (≈ 60.2 µM) | 32 µg/mL (≈ 60.2 µM) | > 512 µg/mL | 8 µg/mL (≈ 15 µM) | –
